Where two headings read alike, the source gives them in different places.
Experiments:
[1] = molecular target: T1, human recombinant HDAC1 (Homo sapiens, UniProt Q13547); test: HDAC1 enzyme activity inhibition (HDAC Fluorimetric Drug Discovery Kit); assay type: biochemical; settings: read-out: HDAC1
T1 construct: purchased Enzo Life Science, Inc. BML-SE456
Procedure, shortened: (§1)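 Enzyme at 0.3 µg per well was reacted with 10 μM fluorogenic substrate in presence of 5-fold diluted compound, 30° C for 60 min.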

[2] = molecular target: T2, human recombinant HDAC6 (Homo sapiens, UniProt Q9UBN7); test: HDAC6 enzyme activity inhibition (HDAC Fluorimetric Drug Discovery Kit); assay type: biochemical
T2 construct: purchased Calbiochem Inc. 382180
T2 sequence (Q9UBN7 1-1215): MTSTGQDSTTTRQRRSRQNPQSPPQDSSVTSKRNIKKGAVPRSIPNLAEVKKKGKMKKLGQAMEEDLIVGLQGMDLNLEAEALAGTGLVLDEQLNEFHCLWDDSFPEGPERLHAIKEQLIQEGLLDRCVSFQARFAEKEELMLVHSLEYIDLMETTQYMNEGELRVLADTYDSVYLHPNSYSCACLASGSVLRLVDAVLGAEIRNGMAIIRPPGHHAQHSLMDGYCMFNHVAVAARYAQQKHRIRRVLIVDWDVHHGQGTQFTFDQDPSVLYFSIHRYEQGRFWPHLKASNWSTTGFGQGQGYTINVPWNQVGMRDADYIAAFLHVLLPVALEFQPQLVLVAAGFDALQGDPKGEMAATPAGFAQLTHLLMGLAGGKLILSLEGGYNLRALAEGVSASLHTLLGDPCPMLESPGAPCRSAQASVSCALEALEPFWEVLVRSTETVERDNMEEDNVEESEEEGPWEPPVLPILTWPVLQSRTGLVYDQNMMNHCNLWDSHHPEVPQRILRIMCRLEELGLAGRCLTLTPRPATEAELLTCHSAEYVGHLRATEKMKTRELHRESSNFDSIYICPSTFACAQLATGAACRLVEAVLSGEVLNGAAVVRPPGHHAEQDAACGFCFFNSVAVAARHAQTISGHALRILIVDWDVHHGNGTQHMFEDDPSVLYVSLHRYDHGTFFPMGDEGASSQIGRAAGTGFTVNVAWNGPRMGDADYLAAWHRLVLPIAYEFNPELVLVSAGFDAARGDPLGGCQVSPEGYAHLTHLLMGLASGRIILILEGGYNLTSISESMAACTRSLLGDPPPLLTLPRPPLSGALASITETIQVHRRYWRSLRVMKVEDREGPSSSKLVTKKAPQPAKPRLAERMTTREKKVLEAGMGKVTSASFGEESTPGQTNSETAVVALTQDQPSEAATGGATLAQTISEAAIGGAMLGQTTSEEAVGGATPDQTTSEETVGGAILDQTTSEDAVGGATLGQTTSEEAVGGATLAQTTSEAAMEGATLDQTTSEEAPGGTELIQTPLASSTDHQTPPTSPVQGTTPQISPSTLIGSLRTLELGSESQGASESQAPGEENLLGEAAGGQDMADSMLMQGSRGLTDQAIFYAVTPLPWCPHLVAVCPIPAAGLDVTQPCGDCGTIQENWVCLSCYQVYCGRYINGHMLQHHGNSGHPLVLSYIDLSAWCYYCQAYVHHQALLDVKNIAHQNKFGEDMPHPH
Procedure, shortened: as §1

[3] = human recombinant HDAC1, IC50 calculated with GraphPad Prism
[4] = human recombinant HDAC6, IC50 calculated with GraphPad Prism
[5] = human recombinant HDAC1, Fluor de Lys substrate, 30° C. 60 minutes
[6] = human recombinant HDAC6, same protocol as HDAC1

T1 sequence (Q13547 whole entry): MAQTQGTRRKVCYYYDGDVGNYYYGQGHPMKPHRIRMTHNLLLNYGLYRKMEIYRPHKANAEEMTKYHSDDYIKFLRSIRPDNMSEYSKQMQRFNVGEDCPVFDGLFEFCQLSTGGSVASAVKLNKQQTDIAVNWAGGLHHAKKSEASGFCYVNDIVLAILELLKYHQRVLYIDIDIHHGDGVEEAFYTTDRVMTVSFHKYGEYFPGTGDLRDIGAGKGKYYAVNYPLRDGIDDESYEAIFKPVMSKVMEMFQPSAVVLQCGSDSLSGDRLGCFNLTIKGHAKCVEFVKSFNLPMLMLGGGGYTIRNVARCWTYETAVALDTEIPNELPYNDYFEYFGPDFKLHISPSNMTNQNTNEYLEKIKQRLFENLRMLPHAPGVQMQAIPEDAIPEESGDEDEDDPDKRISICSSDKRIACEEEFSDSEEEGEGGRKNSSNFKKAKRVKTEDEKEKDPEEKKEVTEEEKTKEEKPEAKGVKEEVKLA

Row | IC50 [1, 3] | HDAC6 selectivity (fold) ([2]; HDAC1 IC50 / HDAC6 IC50) | IC50 [2, 4] | IC50 [1, 5] | HDAC6 selectivity (fold) ([2]; HDAC6 over HDAC1) | IC50 [2, 6] | SMILES
1 | > 50 µM | 263 fold | 0.19 µM | – | – | – | CCCCc1cn(Cc2ccc(-c3nnc(C(F)F)o3)cn2)nn1 [Compound 3832, 2-(6-((4-butyl-1H-1,2,3-triazol-1-yl)methyl)pyridin-3-yl)-5-(difluoromethyl)-1,3,4-oxadiazole]
2 | > 50 µM | 1623 fold | 0.0308 µM | – | – | – | CN1CCc2cc(-c3cn(Cc4ccc(-c5nnc(C(F)F)o5)cn4)nn3)ccc2C1 [Compound 4051, 2-(difluoromethyl)-5-(6-((4-(2-methyl-1,2,3,4-tetrahydroisoquinolin-6-yl)-1H-1,2,3-triazol-1-yl)methyl)pyridin-3-yl)-1,3,4-oxadiazole]
3 | – | – | – | > 50 µM | 4310 fold | 0.0116 µM | FC(F)c1nnc(-c2ccc(Cn3cc(-c4ccnc5[nH]ccc45)nn3)cc2)o1 [Compound 4527, 2-(4-((4-(1H-pyrrolo[2,3-b]pyridin-4-yl)-1H-1,2,3-triazol-1-yl)methyl)phenyl)-5-(difluoromethyl)-1,3,4-oxadiazole]
4 | > 50 µM | 2262 fold | 0.0221 µM | – | – | – | CC(C)(C)OC(=O)NC(C)(C)C(=O)Nc1cccc(-c2cn(Cc3ccc(-c4nnc(C(F)F)o4)cn3)nn2)c1 [Compound 4495]
5 | > 50 µM | 182 fold | 0.274 µM | – | – | – | OC1(c2cn(Cc3ccc(-c4nnc(C(F)F)o4)cc3F)nn2)CCOC1 (stereo not drawn) [Compound 4279, 3-(1-(4-(5-(difluoromethyl)-1,3,4-oxadiazol-2-yl)-2-fluorobenzyl)-1H-1,2,3-triazol-4-yl)tetrahydrofuran-3-ol]
6 | – | – | – | > 50 µM | 586 fold | 0.0853 µM | Fc1cc(-c2nnc(C(F)F)o2)ccc1Cn1cc(-c2ccc(Br)cn2)nn1 [Compound 16928, 2-(4-((4-(5-bromopyridin-2-yl)-1H-1,2,3-triazol-1-yl)methyl)-3-fluorophenyl)-5-(difluoromethyl)-1,3,4-oxadiazole]
7 | > 50 µM | 627 fold | 0.0797 µM | – | – | – | FC(F)c1cccc(-c2cn(Cc3ccc(-c4nnc(C(F)F)o4)cc3)nn2)c1 [Compound 4487, 2-(difluoromethyl)-5-(4-((4-(3-(difluoromethyl)phenyl)-1H-1,2,3-triazol-1-yl)methyl)phenyl)-1,3,4-oxadiazole]
8 | > 50 µM | 74 fold | 0.672 µM | – | – | – | O=C(O)c1ccc(-c2cn(Cc3ccc(-c4nnc(C(F)F)o4)cc3F)nn2)cc1 [Compound 3732, 4-(1-(4-(5-(difluoromethyl)-1,3,4-oxadiazol-2-yl)-2-fluorobenzyl)-1H-1,2,3-triazol-4-yl)benzoic acid]
9 | – | – | – | > 50 µM | 626 fold | 0.0798 µM | Fc1cc(-c2nnc(C(F)F)o2)ccc1Cn1cc(-c2ccc(C3CN(C4COC4)C3)cc2)nn1 [Compound 17700, 2-(difluoromethyl)-5-(3-fluoro-4-((4-(4-(1-(oxetan-3-yl)azetidin-3-yl)phenyl)-1H-1,2,3-triazol-1-yl)methyl)phenyl)-1,3,4-oxadiazole]
10 | > 50 µM | 427 fold | 0.112 µM | – | – | – | CC(C)N1CCN(Cc2cccc(-c3cn(Cc4ccc(-c5nnc(C(F)F)o5)cc4)nn3)c2)CC1 [Compound 4416, 2-(difluoromethyl)-5-(4-((4-(3-((4-isopropylpiperazin-1-yl)methyl)phenyl)-1H-1,2,3-triazol-1-yl)methyl)phenyl)-1,3,4-oxadiazole]
11 | > 50 µM | 122 fold | 0.409 µM | – | – | – | O=C(O)c1cccc(-c2cn(Cc3ccc(-c4nnc(C(F)F)o4)cc3)nn2)c1 [Compound 3659, 3-(1-(4-(5-(difluoromethyl)-1,3,4-oxadiazol-2-yl)benzyl)-1H-1,2,3-triazol-4-yl)benzoic acid]
12 | – | – | – | > 50 µM | 2380 fold | 0.021 µM | CN(C)[C@@H]1CCN(Cc2ccc(-c3cn(Cc4ccc(-c5nnc(C(F)F)o5)cc4F)nn3)cc2)C1 [Compound 4605, (R)-1-(4-(1-(4-(5-(difluoromethyl)-1,3,4-oxadiazol-2-yl)-2-fluorobenzyl)-1H-1,2,3-triazol-4-yl)benzyl)-N,N-dimethylpyrrolidin-3-amine]
13 | – | – | – | > 50 µM | 5882 fold | 0.0085 µM | FC(F)c1nnc(-c2ccc(Cn3cc(-c4ccc(CN5CCC5)cc4)nn3)nc2)o1 [Compound 4558, 2-(6-((4-(4-(azetidin-1-ylmethyl)phenyl)-1H-1,2,3-triazol-1-yl)methyl)pyridin-3-yl)-5-(difluoromethyl)-1,3,4-oxadiazole]
14 | > 50 µM | 100 fold | 0.496 µM | – | – | – | CCC(=O)N1CC(c2cn(Cc3ccc(-c4nnc(C(F)F)o4)cn3)nn2)C1 [Compound 3957, 1-(3-(1-((5-(5-(difluoromethyl)-1,3,4-oxadiazol-2-yl)pyridin-2-yl)methyl)-1H-1,2,3-triazol-4-yl)azetidin-1-yl)propan-1-one]
15 | > 50 µM | 334 fold | 0.15 µM | – | – | – | Fc1cc(-c2nnc(C(F)F)o2)ccc1Cn1cc(-c2ccc(F)c(N3CCN(C4CCC4)CC3)c2)nn1 [Compound 4426, 2-(4-((4-(3-(4-cyclobutylpiperazin-1-yl)-4-fluorophenyl)-1H-1,2,3-triazol-1-yl)methyl)-3-fluorophenyl)-5-(difluoromethyl)-1,3,4-oxadiazole]
16 | > 50 µM | 1039 fold | 0.0481 µM | – | – | – | CCC(=O)N1CCN(c2cccc(-c3cn(Cc4ccc(-c5nnc(C(F)F)o5)cc4F)nn3)c2)CC1 [Compound 4377, 1-(4-(3-(1-(4-(5-(difluoromethyl)-1,3,4-oxadiazol-2-yl)-2-fluorobenzyl)-1H-1,2,3-triazol-4-yl)phenyl)piperazin-1l-yl)propan-1l-one]
17 | – | – | – | > 50 µM | 435 fold | 0.115 µM | Fc1cc(-c2nnc(C(F)F)o2)cnc1Cn1cc(-c2cc(Cl)cc(CN3CCC3)c2)nn1 [Compound 19091, 2-(6-((4-(3(-azetidin-1-ylmethyl)-5-chlorophenyl)-1H-1,2,3-triazol-1-yl)methyl)-5-fluoropyridin-3-yl)-5-(difluoromethyl)-1,3,4-oxadiazole]
18 | – | – | – | > 50 µM | 1262 fold | 0.0396 µM | Fc1cc(-c2cn(Cc3ncc(-c4nnc(C(F)F)o4)cc3F)nn2)ccc1CN1CCC1 [Compound 18947, 2-(6-((4-(4-(azetidin-1-ylmethyl)-3-fluorophenyl)-1H-1,2,3-triazol-1-yl)methyl)-5-fluoropyridin-3-yl)-5-(difluoromethyl)-1,3,4-oxadiazole]
19 | > 50 µM | 203 fold | 0.246 µM | – | – | – | Fc1cc(-c2nnc(C(F)F)o2)ccc1Cn1cc(C2(F)CCOC2)nn1 (stereo not drawn) [Compound 4283, 2-(difluoromethyl)-5-(3-fluoro-4-((4-(3-fluorotetrahydrofuran-3-yl)-1H-1,2,3-triazol-1-yl)methyl)phenyl)-1,3,4-oxadiazole]
20 | – | – | – | > 50 µM | 588 fold | 0.0849 µM | Fc1cc(-c2nnc(C(F)F)o2)ccc1Cn1cc(-c2cncs2)nn1 [Compound 17851, 2-(difluoromethyl)-5-(3-fluoro-4-((4-(thiazol-5-yl)-1H-1,2,3-triazol-1-yl)methyl)phenyl)-1,3,4-oxadiazole]
21 | – | – | – | > 50 µM | 2074 fold | 0.0241 µM | CCN1CCN(c2cc(-c3cn(Cc4ccc(-c5nnc(C(F)F)o5)cc4F)nn3)ccn2)CC1 [Compound 4634, 2-(difluoromethyl)-5-(4-((4-(2-(4-ethylpiperazin-1-yl)pyridin-4-yl)-1H-1,2,3-triazol-1-yl)methyl)-3-fluorophenyl)-1,3,4-oxadiazole]

— patent US20230257372A1 (CHONG KUN DANG PHARMACEUTICAL CORP., priority 2020, published 2023)
